One experiment concerns 4-8Ins TCR. Description: I-Ag7 SABR-II library screen, enrichment score. The format is cell-based, mouse. The text has this: (§1) We then asked whether SABR-IIs could be used to present a library of epitopes for CD4^+ T cell antigen discovery. To that end, we constructed a SABR-II library to present epitopes derived from pancreatic islets in I-Ag7 by curating a list of 4,075 published epitopes from the Immune Epitope Database (iedb.org)[50] and a study by Wan et al.[51] (Supplementary Table 1). Of note, this defined library consisted of unmodified epitopes from endogenous proteins, synthetic mimotopes, deamidated epitopes and hybrid insulin peptides (HIPs) that arise from post-translational fusion and are not genetically encoded in vivo[52],[53]. The epitope library was inserted into the I-Ag7 SABR-II backbone through pooled oligonucleotide synthesis, amplification and ligation-free cloning (Extended Data Fig. 3a). The I-Ag7 SABR-II-library was then expressed in NFAT–GFP Jurkat cells. We confirmed that after sequencing, the library accounted for a mean of 708 reads per epitope (Extended Data Fig. 3b). As a proof of concept, we performed co-incubation assays with Jurkat cells expressing the BDC2.5 TCR and sorted the top 1–2% of GFP^+CD69^+ cells at a rate of ~20 min per replicate with three replicates per TCR. We extracted the genomic DNA from sorted cells, amplified the SABR portion of the integrated proviruses and subjected the amplicons to Illumina sequencing (Extended Data Fig. 3c,d). The 1–2% sort gate represents >50-fold enrichment of cognate epitopes with minimal loss of signal (Extended Data Fig. 3e–h). Sequence reads were aligned to the I-Ag7 SABR-II backbone and the corresponding epitopes were scored based on their read counts. For each TCR under investigation, an enrichment score (ES) was determined for all the epitopes in a library. In each experiment, three replicates of a sort with TCR-expressing Jurkat cells were performed and reads were counted post-sequencing. In addition, three replicates of the unsorted library were also sequenced. A linear regression model was built using the unsorted library counts and used to determine the expected abundance of each epitope in the library. The ES was calculated based on the difference between the measured and the expected abundance of each epitope on a per-TCR basis (Fig. 1e). Based on ES values, two quantitative thresholds were used to determine putative cognate epitopes of a given TCR. A high-confidence zone containing clear outliers with a high ES and a low-confidence zone containing weak outliers with a moderately high ES were determined (Fig. 1e). This two-tiered strategy was used to call putative hits from screens. All the top-scoring epitopes for the BDC2.5 TCR were known BDC2.5 ligands containing the WXRM(D/E) motif (Fig. 1f,g, enriched ligands in red), a well-characterized trait of the BDC2.5 TCR[43],[54]–[56]. Across several independent experiments there was limited variation in ES values for the same TCRs and several epitopes fell into high- or low-confidence zones consistently (Extended Data Fig. 4a). Using a different TCR that was isolated from NOD mice, 4-8Ins[57], which recognized the InsB9:23 epitope ([…]), we observed a similar pattern of ES for cognate epitopes (Extended Data Fig. 4b).
(§2) For SABR library screens, 3 × 10^6 NFAT–GFP Jurkat cells expressing the SABR library were labeled with CellTrace Violet (BioLegend) according to the manufacturer’s protocol before incubation with 3 × 10^6 Jurkat cells expressing the TCR of interest. These mixtures were incubated in a six-well plate for 16–20 h. Cells were stained with anti-CD69-APC-Cy7 where indicated (BioLegend) and the top 1–2% of GFP^+CD69^+ cells were sorted for genomic DNA extraction, indexing and sequencing (see below). Multiplexed assays were scaled on a per-TCR basis (for example 3 × 10^6 for each of three TCRs against 9 × 10^6 library cells). […]

A further experiment concerns BDC2.5 TCR. Put plainly: I-Ag7 SABR-II library screen, enrichment score. The format is cell-based, mouse. Conditions: for Enrichment score: I-Ag7 library; for Enrichment score EXPT1 / Enrichment score EXPT2 / Enrichment score EXPT3 / Enrichment score EXPT5 / Enrichment score EXPT7 / Enrichment score EXPT8: sheet Fig 1F, whole library; for Enrichment score EXPT1: independent biological experiment 1 of 8; for Enrichment score EXPT2: independent biological experiment 2 of 8; for Enrichment score EXPT3: independent biological experiment 3 of 8; for Enrichment score EXPT5: independent biological experiment 5 of 8; for Enrichment score EXPT7: independent biological experiment 7 of 8; for Enrichment score EXPT8: independent biological experiment 8 of 8.
Text: as §1, §2

Setting [1] is: EXPT1 of 3 biological experiments.
[2] abbreviates: EXPT1 of 8 biological experiments.
Where [3] appears, read: one biological experiment (Ext. Data Fig. 6B).

Results on five sequences are retold here after publication PMC11093748, “De novo identification of CD4^+ T cell epitopes” (Nature Methods, 2024).

For the sequence AAVEEGIVAGGGVTLL, the Enrichment score is 6.335e-5 with 4-8Ins TCR (setting [1]); -6.366e-5 in the experiment on 4-8Ins TCR (EXPT2 of 3); -1.563e-5 with 4-8Ins TCR (EXPT3 of 3); -2.818e-5 with BDC2.5 TCR (setting [2]); -9.793e-5 in the experiment with BDC2.5 TCR (EXPT2 of 8); 0.0001628 in the experiment on BDC2.5 TCR (EXPT3 of 8). In addition, the Enrichment score is -0.0001173 with BDC2.5 TCR (EXPT4 of 8); 0.0001045 with BDC2.5 TCR (EXPT6 of 8); -9.918e-5 in the experiment with BDC2.5 TCR (EXPT7 of 8); -0.0001409 with BDC2.5 TCR (EXPT8 of 8); 0.0001628 with BDC2.5 TCR (setting [3]). In addition, the “Enrichment score EXPT1” value with BDC2.5 TCR is recorded as -9.793e-5. Moreover, the “Enrichment score EXPT2” value with BDC2.5 TCR is recorded as -2.818e-5. Moreover, the “Enrichment score EXPT3” value in the experiment on BDC2.5 TCR is on record as 0.0001628. The “Enrichment score EXPT5” value with BDC2.5 TCR came out at 9.606e-5. Further, the “Enrichment score EXPT7” value with BDC2.5 TCR was -9.918e-5. For the same sequence, the “Enrichment score EXPT8” value with BDC2.5 TCR is on record as -0.0001409.
For the sequence AEKVRNLPAGHGLNAQ, the Enrichment score in the experiment with 4-8Ins TCR (setting [1]) is given as -3.1932e-6; in the experiment with 4-8Ins TCR (EXPT2 of 3) it was 0.0001517; in the experiment on 4-8Ins TCR (EXPT3 of 3), -4.244e-5; in the experiment with BDC2.5 TCR (setting [2]), 2.296e-5; in the experiment with BDC2.5 TCR (EXPT2 of 8) it was 1.2173e-5; in the experiment on BDC2.5 TCR (EXPT3 of 8) it was 6.168e-6. In addition, the Enrichment score was 0.0002539 with BDC2.5 TCR (EXPT4 of 8); -2.745e-5 in the experiment on BDC2.5 TCR (EXPT6 of 8); 9.062e-5 with BDC2.5 TCR (EXPT7 of 8); 9.25e-5 in the experiment with BDC2.5 TCR (EXPT8 of 8); 6.168e-6 in the experiment on BDC2.5 TCR (setting [3]). Moreover, the “Enrichment score EXPT1” value in the experiment with BDC2.5 TCR is 1.2173e-5. Also, the “Enrichment score EXPT2” value with BDC2.5 TCR was determined as 2.296e-5. Besides, the “Enrichment score EXPT3” value with BDC2.5 TCR was determined as 6.168e-6. Moreover, in the experiment with BDC2.5 TCR, the “Enrichment score EXPT5” value stood at 8.842e-5. The “Enrichment score EXPT7” value in the experiment with BDC2.5 TCR was 9.062e-5. Besides, in the experiment with BDC2.5 TCR, the “Enrichment score EXPT8” value came to 9.25e-5.
For AGGVAVIKAGAATEV, the Enrichment score in the experiment with 4-8Ins TCR (setting [1]) was 2.615e-5; with 4-8Ins TCR (EXPT2 of 3), -2.489e-5; with 4-8Ins TCR (EXPT3 of 3), 4.9e-5; in the experiment with BDC2.5 TCR (setting [2]), -4.65e-5; in the experiment on BDC2.5 TCR (EXPT2 of 8), 5.397e-5; in the experiment with BDC2.5 TCR (EXPT3 of 8) it was 2.078e-5. Besides, the Enrichment score in the experiment on BDC2.5 TCR (EXPT4 of 8) is reported as 2.834e-5; with BDC2.5 TCR (EXPT6 of 8) it was -5.5015e-5; in the experiment with BDC2.5 TCR (EXPT7 of 8), -7.0061e-5; with BDC2.5 TCR (EXPT8 of 8), -2.822e-5; with BDC2.5 TCR (setting [3]) it was 2.078e-5. Moreover, in the experiment on BDC2.5 TCR, the “Enrichment score EXPT1” value was 5.397e-5. Further, in the experiment with BDC2.5 TCR, the “Enrichment score EXPT2” value is reported as -4.65e-5. In addition, the “Enrichment score EXPT3” value in the experiment on BDC2.5 TCR worked out at 2.078e-5. Besides, the “Enrichment score EXPT5” value with BDC2.5 TCR is given as 9.8885e-5. In addition, in the experiment on BDC2.5 TCR, the “Enrichment score EXPT7” value is on record as -7.0061e-5. For the same sequence, in the experiment with BDC2.5 TCR, the “Enrichment score EXPT8” value is reported as -2.822e-5.
Regarding AKAAVEEGIVAGGGV, the Enrichment score is listed as -1.842e-5 with 4-8Ins TCR (setting [1]); 0.0001302 in the experiment on 4-8Ins TCR (EXPT2 of 3); -6.807e-5 in the experiment with 4-8Ins TCR (EXPT3 of 3); -0.0001132 in the experiment with BDC2.5 TCR (setting [2]); -8.351e-5 in the experiment with BDC2.5 TCR (EXPT2 of 8); -9.939e-5 in the experiment with BDC2.5 TCR (EXPT3 of 8). The Enrichment score is listed as 5.807e-5 in the experiment on BDC2.5 TCR (EXPT4 of 8); 0.0001711 in the experiment with BDC2.5 TCR (EXPT6 of 8); 8.834e-6 in the experiment on BDC2.5 TCR (EXPT7 of 8); 1.023e-7 with BDC2.5 TCR (EXPT8 of 8); -9.939e-5 with BDC2.5 TCR (setting [3]). In addition, the “Enrichment score EXPT1” value in the experiment with BDC2.5 TCR is reported as -8.351e-5. In the experiment with BDC2.5 TCR, the “Enrichment score EXPT2” value is -0.0001132. In addition, in the experiment on BDC2.5 TCR, the “Enrichment score EXPT3” value was -9.939e-5. Moreover, the “Enrichment score EXPT5” value in the experiment on BDC2.5 TCR came to 0.0002581. Besides, the “Enrichment score EXPT7” value with BDC2.5 TCR is listed as 8.834e-6. Besides, the “Enrichment score EXPT8” value in the experiment with BDC2.5 TCR was 1.023e-7.
Consider ALVREGLRNVAAGANP, for which the Enrichment score in the experiment with 4-8Ins TCR (setting [1]) was -1.064e-5; in the experiment with 4-8Ins TCR (EXPT2 of 3), -1.266e-5; in the experiment on 4-8Ins TCR (EXPT3 of 3), -8.85e-6; in the experiment with BDC2.5 TCR (setting [2]), -1.509e-5; in the experiment on BDC2.5 TCR (EXPT2 of 8), -2.732e-5; in the experiment on BDC2.5 TCR (EXPT3 of 8), -2.567e-5. Moreover, the Enrichment score is reported as -1.199e-5 with BDC2.5 TCR (EXPT4 of 8); -1.468e-5 in the experiment with BDC2.5 TCR (EXPT6 of 8); -1.252e-5 in the experiment on BDC2.5 TCR (EXPT7 of 8); -2.71e-5 in the experiment with BDC2.5 TCR (EXPT8 of 8); -2.567e-5 with BDC2.5 TCR (setting [3]). Besides, the “Enrichment score EXPT1” value in the experiment on BDC2.5 TCR is -2.732e-5. In addition, the “Enrichment score EXPT2” value with BDC2.5 TCR was -1.509e-5. In addition, the “Enrichment score EXPT3” value in the experiment on BDC2.5 TCR is given as -2.567e-5. The “Enrichment score EXPT5” value with BDC2.5 TCR is -3.182e-5. Also, the “Enrichment score EXPT7” value in the experiment on BDC2.5 TCR was -1.252e-5. The “Enrichment score EXPT8” value in the experiment on BDC2.5 TCR is on record as -2.71e-5.
